Reference: ChEMBL document CHEMBL5584333, “Evo312: An Evodiamine Analog and Novel PKCβI Inhibitor with Potent Antitumor Activity in Gemcitabine-Resistant Pancreatic Cancer” (J Med Chem, 2024)
Calls of active or inactive are those of the source. The rule behind the calls is not given here.

How the values were obtained:
PANC-1 = assay: Cytotoxicity against human PANC-1 cells assessed as inhibition of cell growth incubated for 72 hrs by SRB assay; assay type: functional, cell-based; details: PANC-1, 72 h
[1] = test system: Gemcitabine-resistant PANC-1; assay: Inhibition of p70S6K phosphorylation in human Gemcitabine-resistant PANC-1 cells at 160 nM incubated for 24 hrs by phospho-kinase array analysis; assay type: cell-based
[2] = Cytotoxicity against HPDE6c7 cells assessed as inhibition of cell growth incubated for 72 hrs by SRB assay; assay type: toxicity, cell-based; details: human
[3] = biological target: Protein kinase C beta type (Homo sapiens, UniProt P05771); assay: Inhibition of PKCbeta1 in human Gemcitabine-resistant PANC-1 cells incubated for 24 hrs; assay type: cell-based; details: dose 40-200 nM
[4] = test system: Gemcitabine-resistant PANC-1; assay: Downregulation of PKCbeta1 expression in human Gemcitabine-resistant PANC-1 cells at 40 to 160 nM incubated for 24 hrs by Western blotting; assay type: functional, cell-based; details: dose 40-160 nM
[5] = test system: Gemcitabine-resistant PANC-1; assay: Downregulation of PKCalpha expression in human Gemcitabine-resistant PANC-1 cells at 40 to 160 nM incubated for 24 hrs by Western blotting; assay type: functional, cell-based; details: dose 40-160 nM
[6] = test system: Gemcitabine-resistant PANC-1; assay: Downregulation of PKCdelta expression in human Gemcitabine-resistant PANC-1 cells at 40 to 160 nM incubated for 24 hrs by Western blotting; assay type: functional, cell-based; details: dose 40-160 nM
[7] = biological target: Serine/threonine-protein kinase AKT (Homo sapiens) (UniProt P31751+Q9Y243+P31749); assay: Inhibition of Akt phosphorylation in human Gemcitabine-resistant PANC-1 cells at 160 nM incubated for 24 hrs by phospho-kinase array analysis; assay type: cell-based
[8] = biological target: Proline-rich AKT1 substrate 1 (Homo sapiens) (UniProt Q96B36); assay: Inhibition of PRAS40 phosphorylation in human Gemcitabine-resistant PANC-1 cells at 160 nM incubated for 24 hrs by phospho-kinase array analysis; assay type: cell-based
[9] = test system: Gemcitabine-resistant PANC-1; assay: Downregulation of p-GSK3beta expression in human Gemcitabine-resistant PANC-1 cells at 40 to 160 nM incubated for 24 hrs by Western blotting; assay type: functional, cell-based; details: dose 40-160 nM
[10] = test system: Gemcitabine-resistant PANC-1; assay: Downregulation of p-p70S6K expression in human Gemcitabine-resistant PANC-1 cells at 40 to 160 nM incubated for 24 hrs by Western blotting; assay type: functional, cell-based; details: dose 40-160 nM
[11] = test system: Gemcitabine-resistant PANC-1; assay: Downregulation of p-STAT5 expression in human Gemcitabine-resistant PANC-1 cells at 40 to 160 nM incubated for 24 hrs by Western blotting; assay type: functional, cell-based; details: dose 40-160 nM
[12] = test system: Gemcitabine-resistant PANC-1; assay: Effect on GSK3beta expression in human Gemcitabine-resistant PANC-1 cells at 40 to 160 nM by Western blot analysis; assay type: functional, cell-based; details: dose 40-160 nM
[13] = test system: Gemcitabine-resistant PANC-1; assay: Effect on p70S6K expression in human Gemcitabine-resistant PANC-1 cells at 40 to 160 nM by Western blot analysis; assay type: functional, cell-based; details: dose 40-160 nM
[14] = test system: Gemcitabine-resistant PANC-1; assay: Cell cycle distribution in human Gemcitabine-resistant PANC-1 cells assessed as sub-G1 phase cells at 40 nM incubated for 24 hrs by RNase/PI staining based flow cytometric analysis (reference value: 0.30 %); assay type: functional
[15] = test system: Gemcitabine-resistant PANC-1; assay: Cell cycle distribution in human Gemcitabine-resistant PANC-1 cells assessed as sub-G1 phase cells at 80 nM incubated for 24 hrs by RNase/PI staining based flow cytometric analysis (reference value: 0.30 %); assay type: functional
[16] = test system: Gemcitabine-resistant PANC-1; assay: Cell cycle distribution in human Gemcitabine-resistant PANC-1 cells assessed as sub-G1 phase cells at 120 nM incubated for 24 hrs by RNase/PI staining based flow cytometric analysis (reference value: 0.30 %); assay type: functional
[17] = test system: Gemcitabine-resistant PANC-1; assay: Cell cycle distribution in human Gemcitabine-resistant PANC-1 cells assessed as G0-G1 phase cells at 80 nM incubated for 24 hrs by RNase/PI staining based flow cytometric analysis (reference value: 45.21 %); assay type: functional
[18] = test system: Gemcitabine-resistant PANC-1; assay: Cell cycle distribution in human Gemcitabine-resistant PANC-1 cells assessed as S phase cells at 40 nM incubated for 24 hrs by RNase/PI staining based flow cytometric analysis (reference value: 17.32 %); assay type: functional
[19] = test system: Gemcitabine-resistant PANC-1; assay: Cell cycle distribution in human Gemcitabine-resistant PANC-1 cells assessed as S phase cells at 80 nM incubated for 24 hrs by RNase/PI staining based flow cytometric analysis (reference value: 17.32 %); assay type: functional
[20] = test system: Gemcitabine-resistant PANC-1; assay: Cell cycle distribution in human Gemcitabine-resistant PANC-1 cells assessed as S phase cells at 160 nM incubated for 24 hrs by RNase/PI staining based flow cytometric analysis (reference value: 17.32 %); assay type: functional
[21] = test system: Gemcitabine-resistant PANC-1; assay: Cell cycle distribution in human Gemcitabine-resistant PANC-1 cells assessed as G2/M phase cells at 80 nM incubated for 24 hrs by RNase/PI staining based flow cytometric analysis (reference value: 37.53 %); assay type: functional
[22] = test system: Gemcitabine-resistant PANC-1; assay: Cell cycle distribution in human Gemcitabine-resistant PANC-1 cells assessed as G2/M phase cells at 160 nM incubated for 24 hrs by RNase/PI staining based flow cytometric analysis (reference value: 37.53 %); assay type: functional
[23] = test system: Gemcitabine-resistant PANC-1; assay: Induction of cell cycle arrest in human Gemcitabine-resistant PANC-1 cells assessed as downregulation of Cdc2 protein expression level at 40 to 160 nM incubated for 24 hrs by Western blot analysis; assay type: functional, cell-based; details: dose 40-160 nM
[24] = test system: Gemcitabine-resistant PANC-1; assay: Induction of cell cycle arrest in human Gemcitabine-resistant PANC-1 cells assessed as downregulation of cyclin D1 protein expression level at 40 to 160 nM incubated for 24 hrs by Western blot analysis; assay type: functional, cell-based; details: dose 40-160 nM
[25] = test system: Gemcitabine-resistant PANC-1; assay: Induction of cell cycle arrest in human Gemcitabine-resistant PANC-1 cells assessed as upregulation of cyclin B1 protein expression level at 40 to 160 nM incubated for 24 hrs by Western blot analysis; assay type: functional, cell-based; details: dose 40-160 nM
[26] = test system: Gemcitabine-resistant PANC-1; assay: Induction of apoptosis in human Gemcitabine-resistant PANC-1 cells assessed as upregulation of cleaved PARP level at 160 nM incubated for 48 hrs by Western blot analysis; assay type: functional, cell-based
[27] = test system: Gemcitabine-resistant PANC-1; assay: Induction of apoptosis in human Gemcitabine-resistant PANC-1 cells assessed as upregulation of cleaved caspase-9 level at 160 nM incubated for 48 hrs by Western blot analysis; assay type: functional, cell-based
[28] = test system: Gemcitabine-resistant PANC-1; assay: Induction of apoptosis in human Gemcitabine-resistant PANC-1 cells assessed as upregulation of cleaved caspase-8 level at 160 nM incubated for 48 hrs by Western blot analysis; assay type: functional, cell-based
[29] = test system: Gemcitabine-resistant PANC-1; assay: Induction of apoptosis in human Gemcitabine-resistant PANC-1 cells assessed as upregulation of cleaved caspase-3 level at 160 nM incubated for 48 hrs by Western blot analysis; assay type: functional, cell-based
[30] = Toxicity in male BALB/c nude mouse at 40 mg/kg, ip; assay type: organism-based; details: in vivo
[31] = test system: Gemcitabine-resistant PANC-1; assay: In vivo inhibition of PKCbeta1 in male BALB/c nude mouse xenografted with human Gemcitabine-resistant PANC-1 cells assessed as reduction in PKCbeta1 expression in tumor at 10 mg/kg, ip administered three times in a week for 20 days by Western blot analysis; assay type: functional, organism-based; details: time 20.0 day

Chain of Serine/threonine-protein kinase AKT (Homo sapiens) (P31749 whole entry, looked up): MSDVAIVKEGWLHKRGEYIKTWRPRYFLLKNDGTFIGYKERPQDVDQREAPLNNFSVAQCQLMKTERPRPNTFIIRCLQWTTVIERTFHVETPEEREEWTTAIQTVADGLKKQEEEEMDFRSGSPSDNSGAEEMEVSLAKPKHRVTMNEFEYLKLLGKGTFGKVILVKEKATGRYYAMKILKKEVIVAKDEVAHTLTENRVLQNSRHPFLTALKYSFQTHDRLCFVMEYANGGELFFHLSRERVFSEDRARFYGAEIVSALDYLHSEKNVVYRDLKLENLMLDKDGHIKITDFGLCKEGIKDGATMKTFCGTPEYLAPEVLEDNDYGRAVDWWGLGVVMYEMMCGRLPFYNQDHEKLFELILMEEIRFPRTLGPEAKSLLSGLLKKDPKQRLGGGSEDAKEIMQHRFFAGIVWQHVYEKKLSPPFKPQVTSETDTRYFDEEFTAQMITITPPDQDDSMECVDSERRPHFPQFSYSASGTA
Chain of Serine/threonine-protein kinase AKT (Homo sapiens) (P31751 whole entry, looked up): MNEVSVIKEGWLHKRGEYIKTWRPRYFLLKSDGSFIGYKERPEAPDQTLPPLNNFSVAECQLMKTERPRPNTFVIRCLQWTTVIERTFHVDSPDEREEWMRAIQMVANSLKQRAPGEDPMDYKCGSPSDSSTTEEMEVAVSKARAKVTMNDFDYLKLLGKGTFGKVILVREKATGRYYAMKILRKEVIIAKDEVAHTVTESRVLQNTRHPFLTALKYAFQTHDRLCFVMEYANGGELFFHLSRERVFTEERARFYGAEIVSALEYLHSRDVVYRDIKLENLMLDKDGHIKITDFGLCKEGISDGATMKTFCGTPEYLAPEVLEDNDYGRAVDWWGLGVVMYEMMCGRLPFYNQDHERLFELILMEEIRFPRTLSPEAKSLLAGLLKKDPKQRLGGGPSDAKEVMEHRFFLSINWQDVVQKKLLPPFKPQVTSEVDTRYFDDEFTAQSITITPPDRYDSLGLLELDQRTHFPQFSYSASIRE
Chain of Serine/threonine-protein kinase AKT (Homo sapiens) (Q9Y243 whole entry, looked up): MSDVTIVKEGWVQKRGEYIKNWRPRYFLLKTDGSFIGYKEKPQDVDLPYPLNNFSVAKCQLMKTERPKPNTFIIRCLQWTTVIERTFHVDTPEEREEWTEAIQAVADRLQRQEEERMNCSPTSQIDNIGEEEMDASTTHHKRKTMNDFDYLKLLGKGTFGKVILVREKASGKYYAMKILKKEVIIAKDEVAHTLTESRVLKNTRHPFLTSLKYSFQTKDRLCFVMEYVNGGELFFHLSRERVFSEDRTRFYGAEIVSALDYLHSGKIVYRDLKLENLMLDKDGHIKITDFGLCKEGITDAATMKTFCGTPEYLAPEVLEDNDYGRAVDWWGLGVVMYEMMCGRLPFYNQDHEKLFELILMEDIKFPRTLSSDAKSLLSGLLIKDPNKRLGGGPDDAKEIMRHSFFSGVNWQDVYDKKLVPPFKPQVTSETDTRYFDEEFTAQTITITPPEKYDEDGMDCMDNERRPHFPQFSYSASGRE
Chain of Protein kinase C beta type (P05771 2-671 limits assumed): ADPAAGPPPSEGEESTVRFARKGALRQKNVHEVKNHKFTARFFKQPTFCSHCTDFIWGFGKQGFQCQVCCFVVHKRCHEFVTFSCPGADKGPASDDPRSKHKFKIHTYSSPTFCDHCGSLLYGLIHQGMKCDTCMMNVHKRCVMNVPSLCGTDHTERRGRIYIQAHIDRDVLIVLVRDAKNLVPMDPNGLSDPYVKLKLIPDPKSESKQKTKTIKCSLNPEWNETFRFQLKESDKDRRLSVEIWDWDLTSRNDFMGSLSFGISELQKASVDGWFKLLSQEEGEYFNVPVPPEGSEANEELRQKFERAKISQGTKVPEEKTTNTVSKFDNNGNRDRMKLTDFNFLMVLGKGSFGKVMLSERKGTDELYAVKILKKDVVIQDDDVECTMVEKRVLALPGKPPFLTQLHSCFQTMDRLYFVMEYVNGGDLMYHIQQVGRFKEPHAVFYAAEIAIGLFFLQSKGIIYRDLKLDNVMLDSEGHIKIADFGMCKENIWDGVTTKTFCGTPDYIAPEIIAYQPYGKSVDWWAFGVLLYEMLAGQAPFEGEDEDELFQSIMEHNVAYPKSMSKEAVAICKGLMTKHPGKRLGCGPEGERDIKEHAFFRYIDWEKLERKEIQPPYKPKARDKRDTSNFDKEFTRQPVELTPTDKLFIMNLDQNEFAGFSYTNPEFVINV

Q: Which IC50 (PANC-1) does the source give for `CC(=O)Oc1ccc2[nH]c3c(c2c1)CCN1C(=O)c2ccccc2N(C)[C@H]31` here?
A: ≤ 80 nM

Q: And the inhibition [1]?
A: Active

Q: What about the IC50 at 72 h [2] of the same compound?
A: 2950 nM

Q: And the inhibition [3]?
A: Dose-Dependent Effect

Q: What about the Activity [4] of the same compound?
A: Active

Q: And the Activity [5]?
A: inactive

Q: And the Activity [6]?
A: inactive

Q: And the inhibition [7]?
A: Active

Q: What about the inhibition [8] of the same compound?
A: Active

Q: What about the Activity [9] of the same compound?
A: Active

Q: And the Activity [10]?
A: Active

Q: And the Activity [11]?
A: Active

Q: And the Activity [12]?
A: inactive

Q: What about the Activity [13] of the same compound?
A: inactive

Q: And the Activity [14]?
A: 0.34%

Q: And the Activity [15]?
A: 1.31%

Q: And the Activity [16]?
A: 1.6%

Q: What about the Activity [17] of the same compound?
A: 34.14%

Q: What about the Activity [18] of the same compound?
A: 17.71%

Q: And the Activity [19]?
A: 15.94%

Q: And the Activity [20]?
A: 14.05%

Q: And the Activity [21]?
A: 48.98%

Q: What about the Activity [22] of the same compound?
A: 58.51%

Q: And the Activity [23]?
A: Active

Q: And the Activity [24]?
A: Active

Q: What about the Activity [25] of the same compound?
A: Active

Q: And the Activity [26]?
A: Active

Q: And the Activity [27]?
A: Active

Q: And the Activity [28]?
A: Active

Q: What about the Activity [29] of the same compound?
A: Active

Q: What about the Activity [30] of the same compound?
A: Non-Toxic

Q: What about the inhibition [31] of the same compound?
A: Active
